Results as given in ChEMBL document CHEMBL4017454, “Bioactive terpenoids from Silybum marianum and their suppression on NO release in LPS-induced BV-2 cells and interaction with iNOS” (Bioorg Med Chem Lett, 2017).

Legend:
[1] = system: BV-2; experiment: Inhibition of LPS-induced NO production in mouse BV2 cells after 20 hrs by Griess assay; format: functional, cell-based; conditions: BV-2, 20 h
[2] = system: BV-2; experiment: Cytotoxicity against mouse BV2 cells assessed as cell survival by MTT assay; format: cell-based

| SMILES | IC50 [1] [µM] | Activity [2] |
| --- | --- | --- |
| CSC(=N)N.O=S(=O)(O)O | 2.5 | Non-Toxic |
| CC1=C2C[C@H]([C@@](C)(O)CO)CC[C@@]2(C)[C@H](O)CC1=O | 6.8 | Non-Toxic |
| CC(C)(O)c1ccc(CO)c(O[C@@H]2O[C@H](CO)[C@@H](O)[C@H](O)[C@H]2O)c1 | 14.1 | Non-Toxic |
| Cc1ccc([C@@H](C)CO)cc1O | 17.8 | Non-Toxic |
| CC(C)(O)c1ccc(CO)c(O)c1 | 15.2 | Non-Toxic |
